Results: patent US10590113B2, “6-hydroxy-4-oxo-1,4-dihydropyrimidine-5-carboxamides as APJ agonists” (priority 2016, dated 2020)

The compounds below were run against T1, human APJ receptor (Homo sapiens, UniProt P35414) (assay: Intracellular cAMP Accumulation Assay (APJ hcAMP, HTRF)). Conditions: not given.
T1 construct: expressed in transfected cells; host or cells: HEK293
T1 sequence (P35414 1-380): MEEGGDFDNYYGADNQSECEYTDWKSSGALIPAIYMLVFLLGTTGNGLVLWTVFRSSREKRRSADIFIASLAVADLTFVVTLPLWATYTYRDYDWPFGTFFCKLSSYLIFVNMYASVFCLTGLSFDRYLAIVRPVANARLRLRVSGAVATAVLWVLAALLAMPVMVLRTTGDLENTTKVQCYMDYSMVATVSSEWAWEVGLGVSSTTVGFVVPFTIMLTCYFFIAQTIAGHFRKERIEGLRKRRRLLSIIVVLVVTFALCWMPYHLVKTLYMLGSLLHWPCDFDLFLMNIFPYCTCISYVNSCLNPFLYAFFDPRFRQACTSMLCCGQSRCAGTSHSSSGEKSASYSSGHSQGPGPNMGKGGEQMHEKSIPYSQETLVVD
Type: cell-based
In short: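 Stably transfected HEK293 cells (5,000/well) incubated 30 min at room temperature with serially diluted compound, […] and 2 μM forskolin. cAMP measured by HTRF after 60 min with detection reagents, quantified against a cAMP standard curve; EC50 from variable-slope sigmoidal fit of inhibition of forskolin-stimulated cAMP.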

EC50 [nM]	SMILES
0.01 to 10	CCCCc1nc(O)c(C(=O)N2CC[C@@H](c3ccccc3)C2)c(=O)n1-c1c(CC)cccc1CC [Example 86, 2-butyl-3-(2,6-diethylphenyl)-6-hydroxy-5-[(3S)-3-phenylpyrrolidine-1-carbonyl]-3,4-dihydropyrimidin-4-one]

Same assay, conditions: human APJ, cAMP accumulation; potency range class; read-out: hAPJ cAMP EC50 Potency range

EC50 [nM]	SMILES
0.01 to 10	CCc1cccc(CC)c1-n1c(-c2ccn(C3CC3)n2)nc(=O)c(C(=O)N2CCC(c3ncc(F)cc3F)C2)c1O (single isomer, unassigned) [Example 325, 2-(1-cyclopropyl-1H-pyrazol-3-yl)-1-(2,6-diethylphenyl)-5-[3-(3,5-difluoropyridin-2-yl)pyrrolidine-1-carbonyl]-6-hydroxy-1,4-dihydropyrimidin-4-one]
0.01 to 10	CC[C@@H](c1ccccc1)n1c(-c2nc(C)cs2)nc(=O)c(C(=O)N2CCC(c3ncc(Cl)cc3F)C2)c1O (single isomer, unassigned) [Example 323]
0.01 to 10	CCc1cccc(CC)c1-n1c(-c2cnn(CC)c2)nc(=O)c(C(=O)N2CCC(c3ncc(F)cc3F)C2)c1O (single isomer, unassigned) [Example 315, 1-(2,6-diethylphenyl)-5-[3-(3,5-difluoropyridin-2-yl)pyrrolidine-1-carbonyl]-2-(1-ethyl-1H-pyrazol-4-yl)-6-hydroxy-1,4-dihydropyrimidin-4-one]
0.01 to 10	CCn1ccc(-c2nc(=O)c(C(=O)N3CCC(c4ncc(F)cc4F)C3)c(O)n2-c2cccc(C(C)C)c2)n1 (single isomer, unassigned) [Example 293, 5-[3-(3,5-difluoropyridin-2-yl)pyrrolidine-1-carbonyl]-2-(1-ethyl-1H-pyrazol-3-yl)-6-hydroxy-1-[3-(propan-2-yl)phenyl]-1,4-dihydropyrimidin-4-one]
0.01 to 10	CCc1cccc(CC)c1-n1c(-c2ccn(CC)n2)nc(=O)c(C(=O)N2CCC(c3ncc(F)cc3F)C2)c1O (single isomer, unassigned) [Example 309, 1-(2,6-diethylphenyl)-5-[3-(3,5-difluoropyridin-2-yl)pyrrolidine-1-carbonyl]-2-(1-ethyl-1H-pyrazol-3-yl)-6-hydroxy-1,4-dihydropyrimidin-4-one]
0.01 to 10	CC[C@@H](c1ccccc1)n1c(-c2ccc(F)c(C)c2)nc(=O)c(C(=O)N2CC[C@H](c3ccccc3)C2)c1O [Example 314, 2-(4-fluoro-3-methylphenyl)-6-hydroxy-1-[(1S)-1-phenylpropyl]-5-[(3R)-3-phenylpyrrolidine-1-carbonyl]-1,4-dihydropyrimidin-4-one]
10 to 100	COc1cccc(OC)c1-n1c(-c2ccc(F)cc2)nc(=O)c(C(=O)N2CCC(c3ccncc3)C2)c1O (single isomer, unassigned) [Example 224, 1-(2,6-dimethoxyphenyl)-2-(4-fluorophenyl)-6-hydroxy-5-[3-(pyridin-4-yl)pyrrolidine-1-carbonyl]-1,4-dihydropyrimidin-4-one]
0.01 to 10	CCc1cccc(CC)c1-n1c(-c2ccn(C(C)C)n2)nc(=O)c(C(=O)N2CC[C@@H](c3ccccc3)C2)c1O [Example 289, 1-(2,6-diethylphenyl)-6-hydroxy-5-[(3S)-3-phenylpyrrolidine-1-carbonyl]-2-[1-(propan-2-yl)-1H-pyrazol-3-yl]-1,4-dihydropyrimidin-4-one]
0.01 to 10	CC[C@@H](c1ccccc1)n1c(-c2nc(C)cs2)nc(=O)c(C(=O)N2CCC(c3ncc(F)cc3F)C2)c1O (single isomer, unassigned) [Example 321]

Same assay, conditions: human APJ, intracellular cAMP accumulation; read-out: hAPJ cAMP EC50 Potency range

EC50 [nM]	SMILES
0.01 to 10	COc1cccc(OC)c1-n1c(COC(C)C)nc(=O)c(C(=O)N2CCC(c3ccc(F)cc3F)C2)c1O (single isomer, unassigned) [Example 162, 5-[3-(2,4-difluorophenyl)pyrrolidine-1-carbonyl]-1-(2,6-dimethoxyphenyl)-6-hydroxy-2-[(propan-2-yloxy)methyl]-1,4-dihydropyrimidin-4-one]
0.01 to 10	COc1cccc(OC)c1-n1c(COC(C)C)nc(=O)c(C(=O)N2CCC(c3ccc(C#N)cc3)C2)c1O (single isomer, unassigned) [Example 107, 4-{1-[1-(2,6-dimethoxyphenyl)-6-hydroxy-4-oxo-2-[(propan-2-yloxy)methyl]-1,4-dihydropyrimidine-5-carbonyl]pyrrolidin-3-yl}benzonitrile]
0.01 to 10	CCCCc1nc(=O)c(C(=O)N2CCC(c3ccc(F)cc3)C2)c(O)n1-c1c(OC)cccc1OC (single isomer, unassigned) [Example 79, 2-butyl-1-(2,6-dimethoxyphenyl)-5-[3-(4-fluorophenyl)pyrrolidine-1-carbonyl]-6-hydroxy-1,4-dihydropyrimidin-4-one]
0.01 to 10	COc1cccc(OC)c1-n1c(COC(C)C)nc(=O)c(C(=O)N2CCC(c3ccccc3F)C2)c1O (single isomer, unassigned) [Example 93, 1-(2,6-dimethoxyphenyl)-5-[3-(2-fluorophenyl)pyrrolidine-1-carbonyl]-6-hydroxy-2-[(propan-2-yloxy)methyl]-1,4-dihydropyrimidin-4-one]
0.01 to 10	COc1ccccc1C1CCN(C(=O)c2c(O)n(-c3c(OC)cccc3OC)c(COC(C)C)nc2=O)C1 (single isomer, unassigned) [Example 160, 1-(2,6-dimethoxyphenyl)-6-hydroxy-5-[3-(2-methoxyphenyl)pyrrolidine-1-carbonyl]-2-[(propan-2-yloxy)methyl]-1,4-dihydropyrimidin-4-one]
0.01 to 10	COc1cccc(OC)c1-n1c(COC(C)C)nc(=O)c(C(=O)N2CCC(c3ccc(C#N)cc3)C2)c1O (single isomer, unassigned) [Example 108, 4-{1-[1-(2,6-dimethoxyphenyl)-6-hydroxy-4-oxo-2-[(propan-2-yloxy)methyl]-1,4-dihydropyrimidine-5-carbonyl]pyrrolidin-3-yl}benzonitrile]
10 to 100	CCCCc1nc(=O)c(C(=O)N2CC[C@H](c3ccccc3)C2)c(O)n1[C@@H](C)c1cccc(OC)c1 [Example 139, 2-butyl-6-hydroxy-3-[(1S)-1-(3-methoxyphenyl)ethyl]-5-[(3R)-3-phenylpyrrolidine-1-carbonyl]-3,4-dihydropyrimidin-4-one]
0.01 to 10	COc1cccc(OC)c1-n1c(COC(C)C)nc(=O)c(C(=O)N2CCC(c3ccccc3C)C2)c1O (single isomer, unassigned) [Example 98, 1-(2,6-dimethoxyphenyl)-6-hydroxy-5-[3-(2-methylphenyl)pyrrolidine-1-carbonyl]-2-[(propan-2-yloxy)methyl]-1,4-dihydropyrimidin-4-one]
0.01 to 10	CC[C@@H](c1cc(F)cc(F)c1)n1c(-c2ccn(CC)n2)nc(=O)c(C(=O)N2CCC(c3ncccc3F)C2)c1O (single isomer, unassigned) [Example 212]
0.01 to 10	CC[C@@H](c1cc(F)cc(F)c1)n1c(-c2nc(C)cs2)nc(=O)c(C(=O)N2CCC(c3cc(F)ccn3)C2)c1O (single isomer, unassigned) [Example 205]

Same assay, conditions: read-out: hAPJ cAMP EC50 Potency range

EC50 [nM]	SMILES
0.01 to 10	CCOCc1nc(=O)c(C(=O)N2CCC(c3ccccc3F)CC2)c(O)n1-c1c(OC)cccc1OC [Example 379, 1-(2,6-dimethoxyphenyl)-2-(ethoxymethyl)-5-(4-(2-fluorophenyl)piperidine-1-carbonyl)-6-hydroxypyrimidin-4(1H)-one]
